This passage reports target mRNA inhibition results from the OligoGym collection.

In the data set the target is SNHG14. The conditions noted are these: ASO.
The mark [1] stands for this setting: Mouse Primary Neuronal Cell, 0.005 µM.

After the bases stand the sugars from the 5' end (letter, count) and the backbone: PS all phosphorothioate, else s phosphorothioate and o phosphodiester by linkage. Methylation of C is not given here. l = locked nucleic acid (LNA); d = 2'-deoxy (DNA)

Consider “CACATTATATTTAAACTAT (sugars l2 d13 l4, PS)”, for which the target mRNA inhibition reads like this: (Human Neuronal Cell, 0.2 µM) 6%; (Human Neuronal Cell, 1 µM) 14%.
With “GATCATTCTCAACAATTA (sugars l2 d1 l2 d8 l5, PS)”, the target mRNA inhibition (Human Neuronal Cell, 7.5 µM) was 26%.
Still for that read-out and setting: for “TCCATTTATTTCCATTTAT (sugars ldlldddddddddldddll, PS)” the value was 50%.
Regarding “TACTCTGCAATACACC (sugars l1 d2 l2 d9 l2, PS)”, the target mRNA inhibition (Human Neuronal Cell, 7.5 µM) was 65%.
Same read-out and setting: with “GAAAATCTCAACTACCATT (sugars l4 d10 l2 d1 l2, PS)” the figure was 60%.
As for “TACACAAATACTTAAATCA (sugars l4 d13 l2, PS)”, the target mRNA inhibition was 7% (Human Neuronal Cell, 0.2 µM) and 19% (Human Neuronal Cell, 1 µM).
For the sequence “TACTCTGCAATACACC (sugars l2 d1 l2 d9 l2, PS)”, the target mRNA inhibition (Human Neuronal Cell, 7.5 µM) turned out to be 64%.
With “AGCAACATTATTAACCAC (sugars l2 d1 l1 d9 l5, PS)”, the target mRNA inhibition (Human Neuronal Cell, 7.5 µM) is 61%.
As to “ACTCTGCAATACACCAA (sugars l1 d1 l2 d10 l3, PS)”, under “Human Neuronal Cell, 7.5 µM”, the target mRNA inhibition was determined as 63%.
On the same count and under the same terms, for “TTTTAACCAGAGTGGCA (sugars l3 d11 l3, PS)” the value was 56%.
As for “CTTTCCATTTATTTCCAT (sugars l3 d12 l3, PS)”, the target mRNA inhibition is, setting by setting: (Human Neuronal Cell, 0.2 µM) 43%; (Human Neuronal Cell, 1 µM) 51%.
Consider “TTATACCTTTCTTTAACCCT (sugars ldldddldddddddddddll, PS)”, for which, for the setting “Human Neuronal Cell, 7.5 µM”, the target mRNA inhibition amounted to 64%.
Turning to “TTCCATTTATTTCCATTTAT (sugars ldldddldddddddldddll, PS)”, the target mRNA inhibition (Human Neuronal Cell, 7.5 µM) came out at 56%.
Still for that read-out and setting: for “TTTTATACCTTTCTTTAACC (sugars ldddlddddddddlddddll, PS)” the value was -9%.
For the sequence GACCTCAATACTCTAC (sugars l4 d10 l2, PS), the target mRNA inhibition is, setting by setting: (Human Neuronal Cell, 0.2 µM) 37%; (Human Neuronal Cell, 1 µM) 44%.
For the sequence “ATCTCATGACCACCTAA (sugars l1 d12 l4, PS)”, the target mRNA inhibition (Human Neuronal Cell, 7.5 µM) came to 48%.
In the case of “TTACCTACATCTCATACT (sugars l2 d12 l4, PS)”, the target mRNA inhibition (Human Neuronal Cell, 0.2 µM) is -6%; the target mRNA inhibition (Human Neuronal Cell, 1 µM) is -7%; the target mRNA inhibition (Human Neuronal Cell, 5 µM) worked out at 16%; the target mRNA inhibition under setting [1] was found to be 95.6%.
In the case of “TGTTTATACCCTTTCCAA (sugars ldddldddddddddldll, PS)”, the target mRNA inhibition (Human Neuronal Cell, 7.5 µM) came to 58%.
The same measure, in the same setting: with “TTTCAGCTTTTAACCAGAGT (sugars l2 d15 l3, PS)” the figure was 67%.
As for TGAACAACTTCTATCA (sugars l3 d10 l3, PS), the target mRNA inhibition (Human Neuronal Cell, 0.2 µM) was 17% and the target mRNA inhibition (Human Neuronal Cell, 1 µM) was 16%.
As to “AGCAACATTATTAACCAC (sugars ldllldddddddlldlll, PS)”, the target mRNA inhibition (Human Neuronal Cell, 7.5 µM) amounted to 26%.
Same read-out and setting: with “ACTCTGCAATACACCAA (sugars ldddldddddddldlll, PS)” the figure was 66%; with “AATTATTTATACACCATCAT (sugars llllddldddddddldddll, PS)”, 61%.
As for “GAAAATCTCAACTACCATT (sugars l3 d1 l1 d10 l4, PS)”, the target mRNA inhibition (Human Neuronal Cell, 7.5 µM) is 57%.
With “ACCTACATCTCATACTT (sugars l2 d11 l4, PS)”, the target mRNA inhibition under setting [1] is 94.2%.
Consider “ATTGATTCAATTCCCTT (sugars l3 d10 l1 d1 l2, PS)”, for which the target mRNA inhibition (Human Neuronal Cell, 7.5 µM) is 70%.
On to “CTCATTTACATTATTATT (sugars l4 d12 l2, PS)”, for which the target mRNA inhibition runs as follows: (Human Neuronal Cell, 0.2 µM) 34%; (Human Neuronal Cell, 1 µM) 44%.
In the case of “TTCTACTATACTTTCCTCT (sugars ldddlddddddddddldll, PS)”, the target mRNA inhibition (Human Neuronal Cell, 7.5 µM) was 53%.
On to “CAACATTATTAACCACCTTA (sugars l4 d10 l1 d2 l3, PS)”, for which the target mRNA inhibition (Human Neuronal Cell, 7.5 µM) came to 55%.
For “TCTTTCCATTTATTTCCATT (sugars l2 d3 l1 d12 l2, PS)”, under “Human Neuronal Cell, 7.5 µM”, the target mRNA inhibition turned out to be 47%.
With “ATTGATTCAATTCCCTT (sugars lddlldddddddlldll, PS)”, for the setting “Human Neuronal Cell, 7.5 µM”, the target mRNA inhibition was 59%.
Turning to “GCACATTCTTTCTATACC (sugars ldldlldddddddldlll, PS)”, the target mRNA inhibition (Human Neuronal Cell, 7.5 µM) turned out to be 51%.
As for TCTCTAATCCTATTCC (sugars l4 d10 l2, PS), the target mRNA inhibition reads like this: (Human Neuronal Cell, 0.2 µM) 53%; (Human Neuronal Cell, 1 µM) 58%.
For “CCTACATCTCATACTTG (sugars l2 d13 l2, PS)”, the target mRNA inhibition runs as follows: (Human Neuronal Cell, 0.2 µM) 9%; (Human Neuronal Cell, 1 µM) 10%; (Human Neuronal Cell, 5 µM) 36%; under setting [1], 79.8%.
Consider “ACTTTACTGCCATAATC (sugars l3 d11 l3, PS)”, for which the target mRNA inhibition turned out to be 40% (Human Neuronal Cell, 0.2 µM) and 33% (Human Neuronal Cell, 1 µM).
On to ACCTACATCTCATACT (sugars l2 d12 l2, PS), for which the target mRNA inhibition is -16% (Human Neuronal Cell, 0.2 µM); 8% (Human Neuronal Cell, 1 µM); 0% (Human Neuronal Cell, 5 µM); 85.7% under setting [1].
For the sequence “GTTCTACTATACTTTCCTC (sugars lddddldddddddddldll, PS)”, the target mRNA inhibition (Human Neuronal Cell, 7.5 µM) was found to be 55%.
